What was measured:
Format in all cases: in vivo
Alopecurus myosuroides = experiment: Pre-emergence herbicidal effect (greenhouse pot test); conditions: pre-emergence method, application rate of 0.32 kg and less of active substance per hectare, scored visually after about 3 weeks
Description: (§1) Seeds of monocotyledonous or dicotyledonous weed plants or crop plants are placed in sandy loam in wood-fiber pots and covered with soil. The compounds according to the invention, formulated in the form of wettable powders (WP), are then applied as aqueous suspension at a water application rate of 600 I/ha (converted) with the addition of 0.2% of wetting agent to the surface of the covering soil.
(§2) After the treatment, the pots are placed in a greenhouse and kept under good growth conditions for the test plants. After about 3 weeks, the effect of the preparations is scored visually in comparison with untreated controls (herbicidal effect in percent (%): 100% activity=the plants have died, 0% activity=like control plants).

Echinochloa crus galli [1] = experiment: as above; conditions: pre-emergence method, application rate of 0.32 kg and less of active substance per hectare, scored visually after about 3 weeks
Description: as §1, §2

Lolium multiflorum [2] = experiment: as above; conditions: pre-emergence method, application rate of 0.32 kg and less of active substance per hectare, scored visually after about 3 weeks
Description: as §1, §2

Veronica persica = experiment: as above; conditions: pre-emergence method, application rate of 0.32 kg and less of active substance per hectare, scored visually after about 3 weeks
Description: as §1, §2

Echinochloa crus galli [3] = experiment: Post-emergence herbicidal effect (greenhouse pot test); conditions: post-emergence method, application rate of 0.32 kg and less of active substance per hectare, rated visually after about 3 weeks
Method: (§3) Seeds of monocotyledonous and dicotyledonous weed and crop plants are placed in sandy loam in wood-fiber pots, covered with soil and cultivated in a greenhouse under good growth conditions. 2 to 3 weeks after sowing, the test plants are treated at the one-leaf stage. The compounds according to the invention, formulated in the form of wettable powders (WP), are then sprayed as aqueous suspension at a water application rate of 600 I/ha (converted) with the addition of 0.2% of wetting agent onto the green parts of the plants. After the test plants have been kept in the greenhouse under optimum growth conditions for about 3 weeks, the activity of the preparations is rated visually in comparison to untreated controls (herbicidal activity in percent (%): 100% activity=the plants have died, 0% activity=like control plants).

Lolium multiflorum [4] = experiment: as above; conditions: post-emergence method, application rate of 0.32 kg and less of active substance per hectare, rated visually after about 3 weeks
Method: as §3

[O-][S+](Cc1c(Cl)cccc1Cl)c1ncco1 (racemic) [compound 44, 2-[(2,6-dichlorobenzyl)sulfinyl]-1,3-oxazole]
very good herbicidal activity: herbicidal activity against Alopecurus myosuroides (Alopecurus myosuroides) | herbicidal activity against Echinochloa crus galli (Echinochloa crus galli [1]) | herbicidal activity against Lolium multiflorum (Lolium multiflorum [2]) | herbicidal activity against Veronica persica (Veronica persica) | herbicidal activity against Echinochloa crus galli (Echinochloa crus galli [3]) | herbicidal activity against Lolium multiflorum (Lolium multiflorum [4])

[O-][S@@+](Cc1c(Cl)cccc1Cl)c1ncco1 [compound 2517]
very good herbicidal activity: herbicidal activity against Alopecurus myosuroides (Alopecurus myosuroides) | herbicidal activity against Echinochloa crus galli (Echinochloa crus galli [1]) | herbicidal activity against Lolium multiflorum (Lolium multiflorum [2]) | herbicidal activity against Veronica persica (Veronica persica) | herbicidal activity against Echinochloa crus galli (Echinochloa crus galli [3]) | herbicidal activity against Lolium multiflorum (Lolium multiflorum [4])

[O-][S+](Cc1c(F)cccc1F)c1ncco1 (stereo not drawn) [compound No. 11, 2-[(2,6-Difluorobenzyl)sulfinyl]-1,3-oxazole]
very good herbicidal activity: herbicidal activity against Alopecurus myosuroides (Alopecurus myosuroides) | herbicidal activity against Echinochloa crus galli (Echinochloa crus galli [1]) | herbicidal activity against Lolium multiflorum (Lolium multiflorum [2]) | herbicidal activity against Veronica persica (Veronica persica)

Cc1ccc(F)c(C[S+]([O-])c2ncco2)c1F (stereo not drawn) [compound No. 14, 2-[(2,6-Difluoro-3-methylbenzyl)sulfinyl]-1,3-oxazole]
very good herbicidal activity: herbicidal activity against Alopecurus myosuroides (Alopecurus myosuroides) | herbicidal activity against Echinochloa crus galli (Echinochloa crus galli [1]) | herbicidal activity against Lolium multiflorum (Lolium multiflorum [2]) | herbicidal activity against Veronica persica (Veronica persica)

[O-][S+](Cc1c(Cl)ccc(Cl)c1Cl)c1ncco1 (stereo not drawn) [compound No. 65, 2-[(2,3,6-Trichlorobenzyl)sulfinyl]-1,3-oxazole]
very good herbicidal activity: herbicidal activity against Alopecurus myosuroides (Alopecurus myosuroides) | herbicidal activity against Echinochloa crus galli (Echinochloa crus galli [1]) | herbicidal activity against Lolium multiflorum (Lolium multiflorum [2]) | herbicidal activity against Veronica persica (Veronica persica) | herbicidal activity against Echinochloa crus galli (Echinochloa crus galli [3]) | herbicidal activity against Lolium multiflorum (Lolium multiflorum [4])

O=S(=O)(Cc1c(Cl)ccc(Cl)c1Cl)c1ncco1 [compound No. 66, 2-[(2,3,6-Trichlorobenzyl)sulfonyl]-1,3-oxazole]
very good herbicidal activity: herbicidal activity against Alopecurus myosuroides (Alopecurus myosuroides) | herbicidal activity against Echinochloa crus galli (Echinochloa crus galli [1]) | herbicidal activity against Lolium multiflorum (Lolium multiflorum [2]) | herbicidal activity against Veronica persica (Veronica persica)

Cc1ccc(C)c(C[S+]([O-])c2ncco2)c1 (stereo not drawn) [compound No. 131, 2-[(2,5-Dimethylbenzyl)sulfinyl]-1,3-oxazole]
very good herbicidal activity: herbicidal activity against Alopecurus myosuroides (Alopecurus myosuroides) | herbicidal activity against Echinochloa crus galli (Echinochloa crus galli [1]) | herbicidal activity against Lolium multiflorum (Lolium multiflorum [2]) | herbicidal activity against Veronica persica (Veronica persica) | herbicidal activity against Echinochloa crus galli (Echinochloa crus galli [3]) | herbicidal activity against Lolium multiflorum (Lolium multiflorum [4])

[O-][S+](Cc1c(F)ccc(F)c1Cl)c1ncco1 (stereo not drawn) [compound No. 203, 2-[(2-Chloro-3,6-difluorobenzyl)sulfinyl]-1,3-oxazole]
very good herbicidal activity: herbicidal activity against Alopecurus myosuroides (Alopecurus myosuroides) | herbicidal activity against Echinochloa crus galli (Echinochloa crus galli [1]) | herbicidal activity against Lolium multiflorum (Lolium multiflorum [2]) | herbicidal activity against Veronica persica (Veronica persica) | herbicidal activity against Echinochloa crus galli (Echinochloa crus galli [3]) | herbicidal activity against Lolium multiflorum (Lolium multiflorum [4])

Source: patent publication US20110190125A1, “2-(BENZYLSULFONYL)OXAZOLE DERIVATIVES, CHIRAL 2-(BENZYLSULFINYL)OXAZOLE DERIVATIVES” (BAYER CROPSCIENCE AG, priority 2008, published 2011)
